Source: patent US20250313820A1, “PEPTIDES WITH MULTIVALENT EFFECTS” (In2Cure AB, priority 2021, published 2025)
Read-outs that look alike come from different tables or passages of the source. Marks after values point to notes of the source that are not given here. Where a SMILES comes first, the peptide text is derived from it. Bridges are numbered along the chain shown (N, C = ends). [ ]: non-standard residue; d: D form. S5 = C=CCCC[C@](C)(N)C(=O)O

Experiments:
[1] = tested on: erythrocytes (RBCs); assay type: cell-based, human; details: for Hemolytic activity, lysed RBCs: 1 h
Procedure: (§1) Fresh venous blood from healthy donors was collected in lepirudine tubes (50 μg mL-1). Then 50 μL of blood were transferred to round-bottom 96-wells plate containing 150 μL of peptides previously diluted in RPMI-1640—GlutaMAX-I without phenol red (Gibco). 1:4 diluted blood was used as control. 50 μL of blood mixed with 150 μl 5% Tween-20 were used as positive control. After 1 h incubation at 37° C. and 5% CO2, the plate was centrifuged at 800 g, 150 μL of each sample were transferred to a flat-bottom 96-wells plate and the absorbance at 450 nm was measured. The percentage of hemolysis was calculated following the formula reported below: […]
To evaluate the hemolytic effect of the peptides on erythrocytes the blood was collected as reported above and centrifuged at 250 g for 10 min. Then plasma was discarded, and red blood cells were washed with 150 mM NaCl in 10 mM Tris pH 7.4 for three times. Next, the pellet was dilute 100 times with saline Tris buffer. 100 μL of this solution were added to round-bottom 96-wells plate containing 100 μL of peptides previously diluted in saline Tris buffer. After 1 h incubation at 37° C. and 5% CO2, the plate was centrifuged and the absorbance at 450 nm was measured, then the percentage of erythrocyte lysis was determined using formula reported above.
(§2) Data shown are mean values±SEM obtained from at least four independent experiments all made in triplicate. For each experiment blood from a different donor was used.

[2] = tested on: whole blood; assay type: cell-based, human; details: 1 h
Procedure: as §1, §2

Structure (SMILES) | Hemolytic activity, lysed RBCs [1] [%] | Hemolytic activity, lysed RBCs in whole blood [2] [%] | Hemolytic activity, lysed RBCs ([1]; 50 μM) [%] | Hemolytic activity, lysed RBCs in whole blood ([2]; 50 μM) | hemolytic activity, RBCs or whole blood (heatmaps FIG. 4, FIG. 20a), in words [1]
CC[C@H](C)[C@H](NC(=O)[C@H](Cc1c[nH]c2ccccc12)NC(=O)[C@H](CCCCN)NC(=O)[C@H](CCCCN)NC(=O)[C@H](CC(C)C)NC(=O)[C@H](CCCNC(=N)N)NC(=O)[C@H](Cc1ccccc1)NC(=O)[C@@H](NC(=O)[C@H](CCCCN)NC(=O)[C@@H](N)CCCCN)C(C)C)C(=O)N[C@@]1(C)CCCC=CCCC[C@@](C)(C(=O)N[C@@H](CCC(N)=O)C(=O)N[C@@H](Cc2ccccc2)C(=O)NCC(=O)N[C@@H](CCC(=O)O)C(=O)O)NC(=O)[C@H]([C@@H](C)CC)NC(=O)[C@H](C(C)C)NC(=O)[C@H](CCCCN)NC1=O [sKKVF18, KKVFRLKKWIX1KVIX2QFGE] (H-KKVFRLKKWI[S5]KVI[S5]QFGE-OH; staple 11-15) | 27.8 ± 3.0 | <1 |  |  | 
CC[C@H](C)[C@H](NC(=O)[C@H](Cc1c[nH]c2ccccc12)NC(=O)[C@H](CCCCN)NC(=O)[C@H](CCCCN)NC(=O)[C@H](CC(C)C)NC(=O)[C@H](CCCNC(=N)N)NC(=O)[C@H](Cc1ccccc1)NC(=O)[C@@H](NC(=O)[C@@H](N)CCCNC(=N)N)C(C)C)C(=O)N[C@@]1(C)CCCC=CCCC[C@@](C)(C(=O)N[C@@H](CCC(N)=O)C(=O)N[C@@H](Cc2ccccc2)C(=O)NCC(=O)N[C@@H](CCC(=O)O)C(=O)O)NC(=O)[C@H]([C@@H](C)CC)NC(=O)[C@H](C(C)C)NC(=O)[C@H](CCCCN)NC1=O [sRVF18, RVFRLKKWIXKVIXQFGE] (H-RVFRLKKWI[S5]KVI[S5]QFGE-OH; staple 10-14) | 53.6 ± 3.8 | <1 |  |  | 
CC[C@H](C)[C@H](NC(=O)[C@H](Cc1c[nH]c2ccccc12)NC(=O)[C@H](CCCCN)NC(=O)[C@H](CCCCN)NC(=O)[C@H](CC(C)C)NC(=O)[C@H](CCCNC(=N)N)NC(=O)[C@H](Cc1ccccc1)NC(=O)[C@@H](NC(=O)[C@@H](N)Cc1cnc[nH]1)C(C)C)C(=O)N[C@@H](CCC(N)=O)C(=O)N[C@@H](CCCCN)C(=O)N[C@H](C(=O)N[C@H](C(=O)N[C@@H](CC(=O)O)C(=O)N[C@@H](CCC(N)=O)C(=O)N[C@@H](Cc1ccccc1)C(=O)NCC(=O)N[C@@H](CCC(=O)O)C(=O)O)[C@@H](C)CC)C(C)C [HVF18, reference compound] (H-HVFRLKKWIQKVIDQFGE-OH) |  |  | 28.5 ± 3.0 | <1* % | 
CC[C@H](C)[C@H](NC(=O)[C@H](Cc1c[nH]c2ccccc12)NC(=O)[C@H](CCCCN)NC(=O)[C@H](CCCCN)NC(=O)[C@@H](N)CC(C)C)C(=O)N[C@@]1(C)CCCC=CCCC[C@@](C)(C(=O)N[C@@H](CCC(N)=O)C(=O)N[C@@H](Cc2ccccc2)C(=O)NCC(=O)N[C@@H](CCC(=O)O)C(=O)O)NC(=O)[C@H]([C@@H](C)CC)NC(=O)[C@H](C(C)C)NC(=O)[C@H](CCCCN)NC1=O [sLKK14, LKKWIX1KVIX2QFGE] (H-LKKWI[S5]KVI[S5]QFGE-OH; staple 6-10) |  |  |  |  | low hemolytic activity
CC[C@H](C)[C@H](NC(=O)[C@H](Cc1c[nH]c2ccccc12)NC(=O)[C@H](CCCCN)NC(=O)[C@H](CCCCN)NC(=O)[C@H](CC(C)C)NC(=O)[C@H](CCCNC(=N)N)NC(=O)[C@H](Cc1ccccc1)NC(=O)[C@@H](NC(=O)[C@H](CCCNC(=N)N)NC(=O)[C@@H](N)CCCNC(=N)N)C(C)C)C(=O)N[C@@]1(C)CCCC=CCCC[C@@](C)(C(=O)N[C@@H](CCC(N)=O)C(=O)N[C@@H](Cc2ccccc2)C(=O)NCC(=O)N[C@@H](CCC(=O)O)C(=O)O)NC(=O)[C@H]([C@@H](C)CC)NC(=O)[C@H](C(C)C)NC(=O)[C@H](CCCCN)NC1=O [sRRVF18, RRVFRLKKWIX1KVIX2QFGE] (H-RRVFRLKKWI[S5]KVI[S5]QFGE-OH; staple 11-15) | 49.1 ± 4.9 | <1 |  |  | 
CC[C@H](C)[C@H](NC(=O)[C@H](Cc1c[nH]c2ccccc12)NC(=O)[C@H](CCCCN)NC(=O)[C@H](CCCCN)NC(=O)[C@H](CC(C)C)NC(=O)[C@H](CCCNC(=N)N)NC(=O)[C@H](Cc1ccccc1)NC(=O)[C@@H](NC(=O)[C@H](CCCNC(=N)N)NC(=O)[C@H](CCCNC(=N)N)NC(=O)[C@H](CCCNC(=N)N)NC(=O)[C@@H](N)CCCNC(=N)N)C(C)C)C(=O)N[C@@]1(C)CCCC=CCCC[C@@](C)(C(=O)N[C@@H](CCC(N)=O)C(=O)N[C@@H](Cc2ccccc2)C(=O)NCC(=O)N[C@@H](CCC(=O)O)C(=O)O)NC(=O)[C@H]([C@@H](C)CC)NC(=O)[C@H](C(C)C)NC(=O)[C@H](CCCCN)NC1=O [sRRRRVF18, RRRRVFRLKKWIX1KVIX2QFGE] (H-RRRRVFRLKKWI[S5]KVI[S5]QFGE-OH; staple 13-17) | 64.9 ± 11.4 | <1 |  |  | 
CC[C@H](C)[C@H](NC(=O)[C@H](Cc1c[nH]c2ccccc12)NC(=O)[C@H](CCCCN)NC(=O)[C@H](CCCCN)NC(=O)[C@H](CC(C)C)NC(=O)[C@H](CCCNC(=N)N)NC(=O)[C@H](Cc1ccccc1)NC(=O)[C@@H](NC(=O)[C@H](CCCNC(=N)N)NC(=O)[C@H](CCCNC(=N)N)NC(=O)[C@@H](N)CCCNC(=N)N)C(C)C)C(=O)N[C@@]1(C)CCCC=CCCC[C@@](C)(C(=O)N[C@@H](CCC(N)=O)C(=O)N[C@@H](Cc2ccccc2)C(=O)NCC(=O)N[C@@H](CCC(=O)O)C(=O)O)NC(=O)[C@H]([C@@H](C)CC)NC(=O)[C@H](C(C)C)NC(=O)[C@H](CCCCN)NC1=O [sRRRVF18, RRRVFRLKKWIX1KVIX2QFGE] (H-RRRVFRLKKWI[S5]KVI[S5]QFGE-OH; staple 12-16) | 61.5 ± 6.2 | <1 |  |  | 
CC[C@H](C)[C@H](NC(=O)[C@H](Cc1c[nH]c2ccccc12)NC(=O)[C@H](CCCCN)NC(=O)[C@H](CCCCN)NC(=O)[C@H](CC(C)C)NC(=O)[C@H](CCCNC(=N)N)NC(=O)[C@H](Cc1ccccc1)NC(=O)[C@@H](NC(=O)[C@@H](N)CCCCN)C(C)C)C(=O)N[C@@]1(C)CCCC=CCCC[C@@](C)(C(=O)N[C@@H](CCC(N)=O)C(=O)N[C@@H](Cc2ccccc2)C(=O)NCC(=O)N[C@@H](CCC(=O)O)C(=O)O)NC(=O)[C@H]([C@@H](C)CC)NC(=O)[C@H](C(C)C)NC(=O)[C@H](CCCCN)NC1=O [sKVF18, KVFRLKKWIXKVIXQFGE] (H-KVFRLKKWI[S5]KVI[S5]QFGE-OH; staple 10-14) | 51.4 ± 4.9 | <1 |  |  | 
CC[C@H](C)[C@H](NC(=O)[C@H](Cc1c[nH]c2ccccc12)NC(=O)[C@H](CCCCN)NC(=O)[C@H](CCCCN)NC(=O)[C@H](CC(C)C)NC(=O)[C@H](CCCNC(=N)N)NC(=O)[C@H](Cc1ccccc1)NC(=O)[C@@H](NC(=O)[C@H](CCCCN)NC(=O)[C@H](CCCCN)NC(=O)[C@@H](N)CCCCN)C(C)C)C(=O)N[C@@]1(C)CCCC=CCCC[C@@](C)(C(=O)N[C@@H](CCC(N)=O)C(=O)N[C@@H](Cc2ccccc2)C(=O)NCC(=O)N[C@@H](CCC(=O)O)C(=O)O)NC(=O)[C@H]([C@@H](C)CC)NC(=O)[C@H](C(C)C)NC(=O)[C@H](CCCCN)NC1=O [sKKKVF18, KKKVFRLKKWIX1KVIX2QFGE] (H-KKKVFRLKKWI[S5]KVI[S5]QFGE-OH; staple 12-16) | 47.1 ± 8.1 | <1 |  |  | 
CC[C@H](C)[C@H](NC(=O)[C@H](Cc1c[nH]c2ccccc12)NC(=O)[C@H](CCCCN)NC(=O)[C@H](CCCCN)NC(=O)[C@H](CC(C)C)NC(=O)[C@H](CCCNC(=N)N)NC(=O)[C@H](Cc1ccccc1)NC(=O)[C@@H](NC(=O)[C@H](CCCCN)NC(=O)[C@H](CCCCN)NC(=O)[C@H](CCCCN)NC(=O)[C@@H](N)CCCCN)C(C)C)C(=O)N[C@@]1(C)CCCC=CCCC[C@@](C)(C(=O)N[C@@H](CCC(N)=O)C(=O)N[C@@H](Cc2ccccc2)C(=O)NCC(=O)N[C@@H](CCC(=O)O)C(=O)O)NC(=O)[C@H]([C@@H](C)CC)NC(=O)[C@H](C(C)C)NC(=O)[C@H](CCCCN)NC1=O [sKKKKVF18, KKKKVFRLKKWIX1KVIX2QFGE] (H-KKKKVFRLKKWI[S5]KVI[S5]QFGE-OH; staple 13-17) | 39.1 ± 5.4 | <1 |  |  | 
CC[C@H](C)[C@H](NC(=O)[C@H](Cc1c[nH]c2ccccc12)NC(=O)[C@H](CCCCN)NC(=O)[C@@H](N)CCCCN)C(=O)N[C@@]1(C)CCCC=CCCC[C@@](C)(C(=O)N[C@@H](CCC(N)=O)C(=O)N[C@@H](Cc2ccccc2)C(=O)NCC(=O)N[C@@H](CCC(=O)O)C(=O)O)NC(=O)[C@H]([C@@H](C)CC)NC(=O)[C@H](C(C)C)NC(=O)[C@H](CCCCN)NC1=O [sKKW13, KKWIX1KVIX2QFGE] (H-KKWI[S5]KVI[S5]QFGE-OH; staple 5-9) |  |  |  |  | low hemolytic activity
